In ChEMBL document CHEMBL4316584, “All that glitters is not gold: Panning cytotoxic natural products and derivatives with a fused tricyclic backbone by the estimation of their leadlikeness for cancer treatment” (Eur J Med Chem, 2019):

Experiments:
Format in all cases: functional, cell-based
HeLa = assay: Cytotoxicity against human HeLa cells by MTT assay
HepG2 [1] = assay: Cytotoxicity against human HepG2 cells after 48 hrs by MTT assay; conditions: HepG2, 48 h
BGC-823 = assay: Cytotoxicity against human BGC823 cells after 48 hrs by MTT assay; conditions: BGC-823, 48 h
MDA-MB-231 = assay: Cytotoxicity against human MDA-MB-231 cells after 48 hrs by MTT assay; conditions: MDA-MB-231, 48 h
K562 = assay: Cytotoxicity against human K562 cells after 48 hrs by MTT assay; conditions: K562, 48 h
MCF7 = assay: Cytotoxicity against human MCF7 cells after 48 hrs by MTT assay; conditions: MCF7, 48 h
A549 [2] = assay: Cytotoxicity against human A549 cells after 48 hrs by MTT assay; conditions: Homo sapiens, A549, 48 h
HL-60 [3] = assay: Cytotoxicity against human HL60 cells after 48 hrs by MTS assay; conditions: HL-60, 48 h
HepG2 [4] = assay: Cytotoxicity against human HepG2 cells after 44 hrs by MTT assay; conditions: HepG2, 44 h
KB = assay: Cytotoxicity against human KB cells after 48 hrs by MTT assay
HT-29 = assay: Cytotoxicity against human HT-29 cells after 48 hrs by MTS assay; conditions: HT-29, 48 h
HL-60 [5] = assay: Cytotoxicity against human HL60 cells after 48 hrs by MTT assay; conditions: HL-60, 48 h
A549 [6] = assay: Cytotoxicity against human A549 cells after 48 hrs by MTS assay; conditions: A549, 48 h
HepG2 [7] = assay: Cytotoxicity against human HepG2 cells by MTT assay

Compound: CCn1c2cc(OC)ccc2c2ccnc(C)c21
- IC50 (HeLa): 17 µM

Compound: CC(C)=CCC/C(C)=C/COc1cc(O)c2c(c1)C(=O)c1cc(C)cc(O)c1C2=O
- IC50 (HepG2 [1]): 15 µM

Compound: CC(C)=CCc1c(O)c(CC=C(C)C)c2oc3cc(O)ccc3c(=O)c2c1O
- IC50 (HepG2 [1]): 18.7 µM

Compound: CC(C)=CCc1c(O)cc2oc3cc(O)ccc3c(=O)c2c1O
- IC50 (BGC-823): 12.1 µM

Compound: O=c1c2ccc(O)c(O)c2oc2cccc(O)c12
- IC50 (BGC-823): 10.1 µM

Compound: N#CC1=C(N)Oc2c(ccc3ccccc23)C1c1cccc([N+](=O)[O-])c1 (stereo not drawn)
- IC50 (MDA-MB-231): 18.1 µM

Compound: CC(C)c1cc2c(cc1O)[C@@]1(C)CCCC(C)(C)[C@@H]1C(=O)C2
- IC50 (K562): 15.9 µM

Compound: CCOC(=O)c1cc2c3ccccc3n(Cc3ccccc3)c2cn1
- IC50 (HeLa): 13 µM

Compound: O=c1c2cc(O)ccc2oc2cc(O)cc(O)c12
- IC50 (HepG2 [1]): 18.3 µM

Compound: O=c1c2ccccc2oc2cc(O)cc(O)c12
- IC50 (HepG2 [1]): 19.5 µM

Compound: O=c1c2ccc(O)cc2oc2cc(O)ccc12
- IC50 (BGC-823): 12.9 µM

Compound: Cc1cc(O)c2c(c1)C(=O)c1cc(O)c(CN3CCOCC3)c(O)c1C2=O
- IC50 (HepG2 [1]): 17.9 µM

Compound: Cc1cc(O)c2c(c1)C(=O)c1cc(O)c(CN3CCCCC3)c(O)c1C2=O
- IC50 (MDA-MB-231): 12.3 µM

Compound: COc1cc(-c2nc(/C=C/C(=O)c3ccc(N)cc3)cc3c2[nH]c2ccccc23)cc(OC)c1OC
- IC50 (MCF7): 14.6 µM
- IC50 (A549 [2]): 11.8 µM

Compound: CCCCCCOc1cccc2c1C(=O)c1c(OCCCCCC)cc(Cn3cc(C)c(=O)[nH]c3=O)cc1C2=O
- IC50 (HepG2 [1]): 4.2 µM

Compound: c1ccc2c(c1)ncn2CCCn1c2ccccc2c2ccccc21
- IC50 (HL-60 [3]): 7.91 µM

Compound: C=C[C@@]1(C)C=C2[C@@H](O[C@@H]3O[C@H](C)[C@H](O)[C@H](O)[C@H]3O)C[C@@H]3C(C)(C)[C@H](O[C@@H]4O[C@@H](C)[C@H](O)[C@@H](O)[C@H]4O[C@H]4O[C@H](CO)[C@@H](O)[C@H](O)[C@H]4O)CC[C@@]3(C)[C@@H]2CC1
- IC50 (MCF7): 5.6 µM

Compound: C=C[C@@]1(C)C=C2[C@@H](O[C@@H]3O[C@H](C)[C@H](O)[C@H](O)[C@H]3O)C[C@@H]3C(C)(C)[C@H](O[C@@H]4O[C@@H](C)[C@H](O)[C@@H](O)[C@H]4O)CC[C@@]3(C)[C@@H]2CC1
- IC50 (MCF7): 10.2 µM

Compound: Cc1cc2ncn(CCCCCn3c4ccccc4c4ccccc43)c2cc1C
- IC50 (HL-60 [3]): 14.7 µM

Compound: N#CC1=C(N)Oc2ccc3ccccc3c2C1c1ccc(Br)cc1 (stereo not drawn)
- IC50 (MDA-MB-231): 6.1 µM

Compound: CC(C)=CCc1c(O)cc2oc3cccc(O)c3c(=O)c2c1O
- IC50 (HepG2 [1]): 1.49 µM

Compound: CCCNC1=CC(=O)c2c(O)c3c(c(O)c2C1=O)C[C@](C)(O)[C@H](O)C3
- IC50 (HepG2 [1]): 9.98 µM

Compound: O=C(O)c1cc(O)c2c(c1)C(=O)c1c(O)cccc1C2=O
- IC50 (HepG2 [4]): 16.3 µM

Compound: Cc1ccc(C2C3=C(CC(C)(C)CC3=O)N(c3ccc(Cl)cc3)C3=C2C(=O)CC(C)(C)C3)cc1
- IC50 (HepG2 [1]): 9.34 µM

Compound: CC(=O)Oc1cc(OC(C)=O)c2c(c1)C(=O)c1cc(C(=O)O)cc(OC(C)=O)c1C2=O
- IC50 (MDA-MB-231): 8.1 µM

Compound: N#CC1=C(N)Oc2c(ccc3ccccc23)C1c1ccc(Cl)cc1 (stereo not drawn)
- IC50 (KB): 14.7 µM

Compound: Clc1ccc(-c2nc(Cn3cc(COc4ccc(Br)cc4)nn3)cc3c2[nH]c2ccccc23)cc1
- IC50 (HT-29): 15.6 µM

Compound: C[C@]1(O)Cc2c(O)c3c(c(O)c2C[C@H]1O)C(=O)C=C(NCc1ccccc1)C3=O
- IC50 (HepG2 [1]): 13.4 µM

Compound: c1ccc2c(c1)c1ccccc1n2CCCCCn1ccnc1
- IC50 (HL-60 [3]): 14.4 µM

Compound: CCOC(=O)C(C)(C)Oc1cc(O)c2c(c1)C(=O)c1cc(C)cc(O)c1C2=O
- IC50 (MDA-MB-231): 7.72 µM

Compound: Cc1cc(O)c2c(c1)C(=O)c1cc(O)c(CN3CCN(c4ccc(F)cc4)CC3)c(O)c1C2=O
- IC50 (HepG2 [1]): 10.4 µM

Compound: CN(C)CCNC1=CC(=O)c2c(O)c3c(c(O)c2C1=O)C[C@](C)(O)[C@H](O)C3
- IC50 (HepG2 [1]): 2.26 µM

Compound: CCn1c2c(c3ccccc31)CCC(CN1CCOCC1)C2=O (stereo not drawn)
- IC50 (K562): 13.8 µM

Compound: N#CC1=C(N)Oc2c(ccc3ccccc23)C1c1ccc([N+](=O)[O-])cc1 (stereo not drawn)
- IC50 (KB): 20 µM

Compound: CC(CO)c1cc2c(cc1O)[C@@]1(C)CCCC(C)(C)[C@@H]1CC2 (stereo partly drawn)
- IC50 (HL-60 [5]): 16.2 µM

Compound: CCOP(=O)(OCC)C(C)(NC(=O)c1cc(O)c2c(c1)C(=O)c1cccc(O)c1C2=O)c1ccc(C)cc1 (stereo not drawn)
- IC50 (HepG2 [1]): 15.1 µM

Compound: Cc1cc2ncn(CCCCn3c4ccccc4c4ccccc43)c2cc1C
- IC50 (A549 [6]): 19.4 µM

Compound: C=CCn1c2c(c3ccccc31)CCC(CN(C)C)C2=O (stereo not drawn)
- IC50 (K562): 3.29 µM

Compound: COc1ccc(-c2nc(Cn3cc(CN4C(=O)c5cccc6cccc(c56)C4=O)nn3)cc3c2[nH]c2ccccc23)cc1OC
- IC50 (HT-29): 7.46 µM

Compound: CCn1c2ccccc2c2cc(C(=O)OC)ncc21
- IC50 (HeLa): 17 µM

Compound: CN(C)CC1CCc2c(n(C)c3ccccc23)C1=O (stereo not drawn)
- IC50 (K562): 17.3 µM

Compound: COc1ccc2c3ccnc(C)c3n(C)c2c1
- IC50 (HepG2 [7]): 16 µM
